Measured values from ChEMBL document CHEMBL1159332, “Equilibrating isomers: bromoindoles and a seco-xanthine encountered during a study of nematocides from the southern Australian marine sponge Hymeniacidon sp” (2002).
Activity calls are given as the source filed them. The calls are words filed in the database; no cut-off is given here.

Tested on: Haemonchus contortus
Test: Nematocidal activity against Haemonchus contortus
Format: functional

Compound: CNc1c(N(C)C=O)c(=O)n(C)c(=O)n1C
- Activity: inactive

Compound: CCOC(=O)/C=C\c1c[nH]c2cc(Br)ccc12
- LD99: 42 µg/mL

Compound: COC(=O)/C=C\c1c[nH]c2cc(Br)ccc12
- LD99: 50 µg/mL

Compound: COC(=O)/C=C/c1c[nH]c2cc(Br)ccc12
- LD99: 50 µg/mL

Compound: CCOC(=O)/C=C/c1c[nH]c2cc(Br)ccc12
- LD99: 42 µg/mL
